Source: patent US20240327792A1, “FLUID SHEAR STRESS FOR EX VIVO ACTIVATION OF IMMUNE EFFECTOR CELLS” (Vanderbilt University, priority 2021, published 2024)

Key:
[1] = system: ZAP70 phosphorylation in Jurkat cells; experiment: ZAP70 phosphorylation of Jurkat cells treated with FSS and CD3/CD28 antibodies (flow cytometry); format: cell-based, human
Method: T cell activation by FSS: Jurkat or primary T cells were collected and resuspended at a concentration of 200,000 cells/mL in complete RPMI 1640 media. The cells were treated with or without functional grade antibodies targeting CD3 (OKT3) and CD28 (CD28.2) at a concentration of 2 μg/mL for both antibodies. The T cells were then loaded into a Brookfield cone-and-plate viscometer for FSS treatment as described previously in Mitchell & King (Mitchell, M. J. et al. New J. Phys. 2013 15:015008). In a cone-and-plate viscometer the FSS magnitude is equal in all radial locations of the viscometer. The shear rate (G) is defined by the equation:
τ=μG • where μ is the viscosity (cP) of the fluid. In these experiments, viscosity was approximately 2.5 cP. Before FSS treatment, the cone-and-plate viscometer was cleaned thoroughly with 70% ethanol. The stationary plate and the rotating cone were then incubated with 5% BSA for 1 h to block nonspecific adhesion. The cells were exposed to fluid shear stress ranging from 0.5-5.0 dyn/cm^2 for times ranging from 15 to 60 min. Primarily, the cells were treated with FSS of magnitude 5.0 dyn/cm^2 for 1 h.
Where indicated, Jurkat cells were pretreated with different compounds prior to antibody and FSS treatment. The Jurkat cells were incubated with either 5 μM Cyclosporin A (CSA), 10 μM Cytochalasin D (CCD), 10 μM GsMTx-4, or 2 mM EGTA 30 min prior to antibody and FSS treatment.
Flow cytometry antibody staining: When staining for intracellular proteins, the cells were immediately fixed with 4% paraformaldehyde for 10 min. The cells were washed thoroughly and permeabilized with 100% ice cold methanol for 10 min. After washing the cells, the cells were stained with the indicated fluorescent-tagged antibodies for 15 min in 1% BSA. The fluorescence of each sample was measured using a Gauva easyCyte 5HT flow cytometer. Gating was performed using FlowJo software. For Jurkat samples, debris was gated out and fluorescence was quantified using FlowJo software.

DC2.4 cells [2] = experiment: Costimulatory molecule expression in DC2.4 cells 24 h after stimulation; format: cell-based, murine; conditions: 10 μg/mL LPS, 24 h after 1 h stimulation, regardless of shear stress
Method: (§1) Prior to prepping cells, the cone-and-plate was incubated with 5% bovine serum albumin (BSA) for 1 h in order to block non-specific binding. DC2.4 cells were lifted with trypsin, washed, and resuspended in complete RMPI media at 200,000 cells/mL. Cells were placed on a rotator for static conditions. For shear conditions, an FSS of 5.0 dyn/cm^2 was applied for 1 h using cone-and-plate flow device. Static and shear conditions were either left untreated or treated with lipopolysaccharide (LPS) potent stimulator at 10 μg/mL.
(§2) Flow cytometry analysis and antibody staining: Following FSS stimulation, cells were plated overnight or immediately prepped for flow cytometry analysis. For intracellular proteins such as NF-κB and AP-1, cells were fixed with 4% paraformaldehyde for 10 min. Cells were washed with HBSS and permeabilized with 100% ice cold methanol. Cells were washed again and stained for 15 min in the dark with antibodies fluorescently-labeled with PE fluorophore while suspended in 1% BSA. Guava easyCyte 5HT flow cytometer was used to measure fluorescent intensity, with FloJo software used for gating and analysis. For extracellular proteins analyzed after 24 h, cells were lifted with trypsin, washed, and incubated with fluorescently-labeled antibodies in 1% BSA and then washed a final time.

DC2.4 cells [3] = experiment: Intracellular cytokine staining of DC2.4 cells after 24 h (IL-6, IL-12, CCR7); format: cell-based, murine
Method: as §1
Cytokine staining: For intracellular cytokine staining (ICS), cells were plated overnight following FSS stimulation. After 24 h, cells were treated with 1:1000 GolgiPlug Transport Inhibitor to block cytokine secretion. After 4 h, cells were lifted and stained following the previously described protocol for staining intracellular proteins. IL-6, IL-12 and CCR7 were investigated in this study.
(§3) Inhibition of NF-κB: NF-κB was inhibited using caffeic acid phenethyl ester (CAPE). DC2.4 cells were lifted, washed and suspended in 200,000 cells/mL complete media. 1 μL of CAPE was added to this suspension. Cells were placed on a rotator for 30 min to allow for effective inhibition, and then added to the cone-and-plate viscometer for FSS stimulation. Following FSS, NF-κB phosphorylation analysis was performed after 1 h FSS. Following stimulation, 100,000 cells were plated overnight for cytokine analysis and 100,000 cells were immediately analyzed for NF-κB phosphorylation. NF-κB and cytokine assays were performed as described previously.

[4] = system: NF-κB phosphorylation in DC2.4 cells; experiment: NF-κB phosphorylation in DC2.4 dendritic cells (flow cytometry); format: cell-based, murine
Method: as §1, §2, §3
GsMTx4: GsMTx-4 (ab141871) was purchased from Abcam. […] Following FSS, cells were prepared and analyzed for NF-κB phosphorylation as previously described. […]

[5] = Jurkat cells pretreated 10 μM 30 min prior to FSS and antibody treatment, compared to FSS and antibodies without the inhibitor
[6] = after CAPE treatment and FSS, 24 h

## O=C(O)CN(CCOCCOCCN(CC(=O)O)CC(=O)O)CC(=O)O [EGTA]
[1]; Jurkat cells pretreated 2 mM for 30 min, then FSS and antibodies, compared to FSS and antibodies only
  ZAP70 phosphorylation: significant reduction

## lipopolysaccharide [LPS]
DC2.4 cells [2]
  CD40 costimulatory molecule expression enhanced in the presence of LPS: significant
  CD80 costimulatory molecule expression enhanced in the presence of LPS: trend
DC2.4 cells [3]; 10 μg/mL LPS, 24 h after 1 h 5.0 dyn/cm^2 FSS
  release of IL-6, IL-12 and CCR7, FSS versus FSS with LPS: not a significant difference
[4]; DC2.4 cells, 10 μg/mL LPS, 5.0 dyn/cm^2 FSS, 1 h
  NF-κB phosphorylation, FSS with LPS versus FSS without LPS: no significant difference

## GsMTx-4
[1]; [5]
  ZAP70 phosphorylation: significant reduction
[4]; DC2.4 cells incubated with 10 μmol GsMTx4, FSS, two replicates
  NF-κB phosphorylation: reduced

## O=C(/C=C/c1ccc(O)c(O)c1)OCCc1ccccc1 [CAPE, caffeic acid phenethyl ester]
DC2.4 cells [3]; [6]
  CCR7 production: strong trend in the reduction
  IL-6 production: strong trend in the reduction
  IL-12 release: significant reduction
[4]; DC2.4 cells, CAPE 30 min before 1 h FSS
  NF-κB phosphorylation compared to untreated cells: significant reduction

## C=C1[C@@H](C)[C@H]2[C@H](Cc3ccccc3)NC(=O)[C@]23[C@H](OC(C)=O)/C=C/[C@@](C)(O)C(=O)[C@@H](C)C/C=C/[C@H]3[C@@H]1O [CCD, Cytochalasin D]
[1]; Jurkat cells pretreated 10 μM 30 min, antibody-only, no FSS
  ZAP70 phosphorylation (activation), antibody-only condition: not significantly altering
[1]; [5]
  ZAP70 phosphorylation: significantly reduced
